The text below walks through data of US10023593B2, “ALK kinase inhibitor, and preparation method and uses thereof” (BEIJING PEARL BIOTECHNOLOGY LIMITED LIABILITY COMPANY, priority 2014, dated 2018).

The target in one assay is T1, Wild Type ALK kinase (Homo sapiens, UniProt Q9UM73).
T1 construct: purchased Sino-US Crown Bioscience, Inc. batch number ALK 20110607
The assay is described as follows: HTRF KinEASE-TK assay, inhibitory activity on wild type ALK kinase. It counts as biochemical. To be noted: wild type ALK 1 ng/μl, substrate 1 μM, 30° C. 35 minutes, read-out: Inhibition on ALK kinases (wildtype), IC50. The source says: 1. Inhibitory Activities of the Compounds of the Present Invention on Wild Type ALK Kinases
? experimental method ? HTRF KinEASE™-TK Assay kit from Cisbio company was used to detect inhibitory activities of the compounds on wildtype ALK kinases (wild type ALK kinases).
(§1) ? instrument ? Envision 2104 plate reader from PerKinElmer company.
? experiment material ? HTRF KinEASE™-TK Assay Kit (Cisbio company, catalog No. 62TK0PEC); Wild Type ALK kinase (produced by Sino-US Crown Bioscience, Inc., batch number ALK 20110607); DTT (Gibco BRL company, catalog No. 15508-012); MgCl2 (Sigma Aldrich company, catalog No. M-2670); ATP (Sigma Aldrich company, catalog No. A-7699); DMSO (AMRESCO company, catalog No. 0231); EDTA (AMRESCO company, catalog No. 0105); 96 wells plates (for diluting compounds) (CITOTEST company, catalog No. Ref36020096D); OptiPlate™-384 (White), PerkinElmer company, catalog No. P12-004)
(§2) ? experimental condition ? Compounds (the final concentration of DMSO was 1%), the reaction substrate (the final concentration was 1 μM), ATP (the final concentration was 2004), and Wildtype ALK kinases (the final concentration was 1 ng/μl) were mixed respectively in a final volume of 10 μl reaction system (containing 5 mM MgCl2, 1× Kinase buffer, and 1 mM DTT). The mixture was reacted at 30° C. for 35 minutes after shaking for 30 seconds. After completion of the reaction, each well was added with 5 μl Sa-XL665 and 5 μl TK Antibody-Eu(K), and placed in the dark for 60 minutes to end the reaction after uniform mixing. The data was read from PerkinElmer EnVision plate reader ([…]), the 665/615 ratio was calculated, and the data was analyzed.
(§3) ? tested samples ? Compounds from the examples.
(§4) ? data analysis ? Minimum 665/615 ratio (Rmin, 665/615 ratio under the condition that 10.4 μM positive control drug LDK-378 was added)
(§5) Maximum 665/615 ratio (Rmax, 665/615 ratio under the condition that no compound was added)
(§6) Tested 665/615 ratio (Rcompound, 665/615 ratio under the condition that a given concentration of compound was added) Inhibition rate (%)=[1−(Rcompound−Rmin)/(Rmax−Rmin)]×100
(§7) ? data processing ? IC50 of compounds was calculated by using XLfit program in Excel.

In a further assay the target is T2, L1196M mutant ALK kinase (Homo sapiens, UniProt Q9UM73, L1196M).
T2 construct: purchased Sino-US Crown Bioscience, Inc. batch number ALKm_20110923
T2 sequence (Q9UM73 19-1620 L1196M): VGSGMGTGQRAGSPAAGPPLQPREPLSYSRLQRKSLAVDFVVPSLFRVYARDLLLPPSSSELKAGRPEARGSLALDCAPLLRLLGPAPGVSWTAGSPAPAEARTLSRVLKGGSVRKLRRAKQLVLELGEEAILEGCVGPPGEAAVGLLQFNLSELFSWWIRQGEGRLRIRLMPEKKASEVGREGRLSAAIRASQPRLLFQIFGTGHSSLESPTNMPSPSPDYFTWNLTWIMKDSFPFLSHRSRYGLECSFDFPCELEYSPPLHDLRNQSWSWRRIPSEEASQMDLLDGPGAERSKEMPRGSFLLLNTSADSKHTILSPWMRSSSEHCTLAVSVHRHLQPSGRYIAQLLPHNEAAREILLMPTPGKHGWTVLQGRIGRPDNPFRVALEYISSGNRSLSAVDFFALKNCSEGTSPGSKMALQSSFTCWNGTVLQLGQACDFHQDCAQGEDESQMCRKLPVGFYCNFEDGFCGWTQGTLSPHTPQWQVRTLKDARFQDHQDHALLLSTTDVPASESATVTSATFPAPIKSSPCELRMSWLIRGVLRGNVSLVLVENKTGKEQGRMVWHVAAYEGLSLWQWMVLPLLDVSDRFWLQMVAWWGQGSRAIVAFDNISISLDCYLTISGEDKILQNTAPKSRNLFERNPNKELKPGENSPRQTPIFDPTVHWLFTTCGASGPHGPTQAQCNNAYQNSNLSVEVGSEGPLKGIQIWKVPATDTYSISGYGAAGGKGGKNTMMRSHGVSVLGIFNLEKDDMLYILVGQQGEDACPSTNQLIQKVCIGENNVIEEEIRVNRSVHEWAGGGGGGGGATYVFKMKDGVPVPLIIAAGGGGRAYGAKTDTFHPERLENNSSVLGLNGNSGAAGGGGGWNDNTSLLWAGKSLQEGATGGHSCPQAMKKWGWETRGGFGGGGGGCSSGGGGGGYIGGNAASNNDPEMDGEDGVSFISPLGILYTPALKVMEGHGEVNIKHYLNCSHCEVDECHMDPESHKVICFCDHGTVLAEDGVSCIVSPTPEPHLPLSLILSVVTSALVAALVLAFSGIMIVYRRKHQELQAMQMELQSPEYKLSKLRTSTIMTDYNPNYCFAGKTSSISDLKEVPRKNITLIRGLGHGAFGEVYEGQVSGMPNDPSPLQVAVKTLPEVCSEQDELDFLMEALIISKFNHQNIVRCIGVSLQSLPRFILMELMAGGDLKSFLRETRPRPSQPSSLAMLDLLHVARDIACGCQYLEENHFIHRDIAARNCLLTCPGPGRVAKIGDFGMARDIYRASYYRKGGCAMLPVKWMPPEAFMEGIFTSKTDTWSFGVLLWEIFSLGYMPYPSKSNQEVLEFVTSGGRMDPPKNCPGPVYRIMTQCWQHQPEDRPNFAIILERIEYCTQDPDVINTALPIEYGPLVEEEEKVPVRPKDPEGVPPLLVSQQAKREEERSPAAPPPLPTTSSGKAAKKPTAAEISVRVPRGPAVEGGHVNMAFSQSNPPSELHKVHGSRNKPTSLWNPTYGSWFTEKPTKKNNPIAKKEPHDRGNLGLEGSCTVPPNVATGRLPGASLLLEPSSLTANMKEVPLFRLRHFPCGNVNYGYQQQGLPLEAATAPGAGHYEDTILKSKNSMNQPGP
As to the kind of experiment: HTRF KinEASE-TK assay, inhibitory activity on L1196M mutant ALK kinase. The format is biochemical. To be noted: L1196M mutant ALK 1 ng/μl, substrate 1 μM, ATP 5 μM, 30° C. 35 minutes, read-out: Inhibition on ALK kinases (L1196M mutant), IC50.
Description: 2. Inhibitory Activities of the Compounds of the Present Invention on L1196M Mutant ALK Kinases
? experimental method ? HTRF KinEASE™-TK Assay kit from Cisbio company was used to detect inhibitory activities of the compounds on L1196M mutant ALK kinases.
as §1
? experiment material ? HTRF KinEASE™-TK Assay Kit (Cisbio company, catalog No. 62TK0PEC); L1196M mutant ALK kinase (produced by Sino-US Crown Bioscience, Inc., batch number ALKm_20110923); DTT (Gibco BRL company, catalog No. 15508-012); MgCl2 (Sigma Aldrich company, catalog No. M-2670); ATP (Sigma Aldrich company, catalog No. A-7699, batch number 051M7014V); DMSO (AMRESCO company, catalog No. 0231); EDTA (AMRESCO company, catalog No. 0105); 96 wells plates (for diluting compounds) (CITOTEST company, catalog No. Ref36020096D); OptiPlate™-384 (White), PerkinElmer company, catalog No. P12-004)
as §2, with “5 μM),” for “2004),”, “L1196M mutant” for “Wildtype”
as §3, §4, §5, §6, §7

The next assay has as its system NCI-H2228 cell line. As to the kind of experiment: CellTiter-Glo cell proliferation inhibition on NCI-H2228 cell line. To be noted: Homo sapiens, NCI-H2228, 96 h, NCI-H2228 cells, 5000 cells/well, 4 days drug treatment. The format is cell-based. The method, then: 3. Cell Proliferation Inhibitory Activities of the Compounds of the Present Invention on NCI-H2228 Cell Line
? experimental method ? CellTiter-Glo® Luminescent Cell Viability Assay kit from Promega company was used to detect cell proliferation inhibitory activities of the compounds on NCI-H2228 cell line.
? instrument ? Envision 2104 plate reader from PerKinElmer company; Vi-Cell XR cell counter from Beckman Counter company; MCO-18AIC CO2 incubator from SANYO company.
? experiment material ? CellTiter-Glo® Luminescent Cell Viability Assay Kit (Promega company, catalog No. G7573); NCI-H2228 cell line (ATCC, catalog No. CRL-5935); RPMI-1640 medium (HyClone company, catalog No. SH30809.01B); fetal bovine serum (FBS) (Gibco company, catalog No. 10099-141); trypsin (Trypsin) (Gibco company, catalog No. 25200-072); PBS (HyClone company, catalog No. SH30256.01B); 96 wells cell culture plate (Corning company, catalog No. 3610); DMSO (AMRESCO company, catalog No. 0231); 96 wells plates (for diluting compounds) (CITOTEST company, catalog No. Ref36020096D);
? experimental condition ? NCI-H2228 cells in exponential growth phase were collected and treated with trypsin (Trypsin), and viable cells were counted by Vi-Cell XR cell counter. Cell suspension was adjusted to 62500 cells/ml with culture medium (RPMI-1640+10% FBS). 80 μl cell suspension was added into each well of 96 wells cell culture plate so that the final cell number of NCI-H2228 cells was 5000 cells/well. The cells were cultivated in an incubator with an atmosphere of 37° C., 5% CO2 and 95% humidity for 2 hours and then each well was added with 20 μl compounds in RPMI-1640 medium solution (the final concentration of DMSO was 0.5%). 4 days after drug treatment, each well was added with 50 μl CellTiter-Glo solution which was previously thawed and equilibrated to room temperature, and mixed for 2 minutes with microplate shaker. After placing at room temperature for 10 minutes, luminescence value was measured by PerkinElmer Envision 2104 plate reader and the data was analyzed.
? tested samples ? Compounds of the examples.
? data analysis ? Luminescence value of DMSO solvent control (Vvehicle control, which is the mean luminescence value from DMSO solvent control group)
Tested luminescence value (Vsample, which is the luminescence value from given concentration of compounds group) Inhibition rate (%)=(1−Vsample/Vvehicle control)×100
as §7

The structures appear in SMILES notation.

T1 sequence (Q9UM73 19-1620): as the sequence (Q9UM73 19-1620 L1196M) above, with M1178L counted along it

Take `Cc1cc(Nc2ncc(C(F)(F)F)c(Nc3cn(C)nc3S(=O)(=O)C(C)C)n2)c(OC2CC2)cc1C1CCN(C)CC1` [Final product 209, N^2-[2-cyclopropoxy-4-(1-methyl-piperidin-4-yl)-5-methylphenyl]-N^4-[1-methyl-3-(isopropylsulfonyl)-1H-pyrazol-4-yl]-5-(trifluoromethyl)pyrimidin-2,4-diamine]: the figures for the IC50 at Wild Type ALK kinase, at L1196M mutant ALK kinase and in the assay with NCI-H2228 cell line were 3 nM, 9 nM and 71 nM, respectively.
Taken in the same sequence, the figures for `CCN(CC)[C@H]1CC[C@H](c2cc(OC3CC3)c(Nc3ncc(Cl)c(Nc4cn(C)nc4S(=O)(=O)C(C)C)n3)cc2C)CC1` [Final product 192] were 9 nM, 12 nM and 68 nM.
With `Cc1cc(Nc2nc(Nc3cc(C)c(C4CCN(S(C)(=O)=O)CC4)cc3C)ncc2Cl)n[nH]1` [Final product 217, reference compound], the IC50 at Wild Type ALK kinase is 20 nM; at L1196M mutant ALK kinase it was 69 nM; in the assay with NCI-H2228 cell line, 1130 nM.
Taken in the same sequence, the figures for `CCN(CC)[C@H]1CC[C@@H](c2cc(OC3CC3)c(Nc3ncc(Cl)c(Nc4cn(C)nc4S(=O)(=O)C(C)C)n3)cc2C)CC1` [Final product 191] were 8 nM, 17 nM and 60 nM.
The matching figures for `Cc1cc(Nc2nc(Nc3cc(C)c(C4CCN(C(C)C)CC4)cc3C)ncc2Cl)n[nH]1` [Final product 213, reference compound]: 19 nM, 22 nM and 964 nM.
The matching figures for `Cc1cc(Nc2nc(Nc3cc(C)c(C4CCN(C)CC4)cc3OC(C)C)ncc2Cl)n[nH]1` [Final product 212, 5-chloro-N^2-[2-isopropoxy-4-(1-methyl-piperidin-4-yl)-5-methyl-phenyl]-N^4-[5-methyl-1H-pyrazol-3-yl]-pyrimidin-2,4-diamine, reference compound]: 13 nM, 37 nM and 725 nM.
In the case of `Cc1cc(Nc2nc(Nc3cc(C)c(C4CCN(CCO)CC4)cc3C)ncc2Cl)n[nH]1` [Final product 215, reference compound], the IC50 was 28 nM at Wild Type ALK kinase, 39 nM on L1196M mutant ALK kinase and 1040 nM with NCI-H2228 cell line.
Turning to `Cc1cc(Nc2ncc(Cl)c(Nc3cn(C)nc3S(=O)(=O)C(C)C)n2)c(OC2CC2)cc1C1CCN(C(C)C)CC1` [Final product 123, 5-chloro-N^2-[2-cyclopropoxy-4-(1-isopropylpiperidin-4-yl)-5-methyl-phenyl]-N^4-[1-methyl-3-(isopropylsulfonyl)-1H-pyrazol-4-yl]-pyrimidin-2,4-diamine], the IC50 at Wild Type ALK kinase amounted to 2 nM; on L1196M mutant ALK kinase it was 5 nM.
With `Cc1cc(Nc2nc(Nc3cc(C)c(C4CCCNC4)cc3C)ncc2Cl)n[nH]1` (centres unmarked) [Final product 214, reference compound], the IC50 on Wild Type ALK kinase came to 22 nM; on L1196M mutant ALK kinase it was 54 nM; in the assay with NCI-H2228 cell line, 1240 nM.
Taken in the same sequence, the figures for `Cc1cc(Nc2ncc(Cl)c(Nc3cn(C)nc3C#N)n2)c(OC2CC2)cc1C1CCN(C)CC1` [Final product 211, 5-chloro-N^2-[2-cyclopropoxy-4-(1-methyl-piperidin-4-yl)-5-methyl-phenyl]-N^4-[1-methyl-3-cyano-1H-pyrazol-4-yl]-pyrimidin-2,4-diamine] were 3 nM, 11 nM and 272 nM.
Taken in the same sequence, the figures for `Cc1cc(Nc2ncc(Cl)c(Nc3cn(C)nc3S(=O)(=O)CC(C)C)n2)c(OC(C)C)cc1C1CN(S(C)(=O)=O)C1` [Final product 169] were 68 nM, 43 nM and 133 nM.
Taken in the same sequence, the figures for `CNC(=O)CN1CCC(c2cc(OC)c(Nc3ncc(Cl)c(Nc4cc(C)n[nH]4)n3)cc2C)CC1` [Final product 216, reference compound] were 17 nM, 28 nM and 948 nM.
Take `Cc1cc(Nc2nc(Nc3cc(C)c([C@H]4CC[C@H](N5CCN(C)CC5)CC4)cc3F)ncc2Cl)[nH]n1` [Final product 218, reference compound]: the IC50 on Wild Type ALK kinase came to 27 nM; at L1196M mutant ALK kinase it was 49 nM; with NCI-H2228 cell line, 1070 nM.
Taken in the same sequence, the figures for `Cc1cc(Nc2ncc(Cl)c(Nc3cn(C)nc3S(=O)(=O)C(C)C)n2)c(OC2CC2)cc1C1CCN(C(=O)C(C)C)CC1` [Final product 163, 1-isobutyryl-4-(4-(5-chloro-4-(3-(isopropylsulfonyl)-1-methyl-1H-pyrazol-4-amino)pyrimidin-2-amine)-5-cyclopropoxy-2-methylphenyl)piperidine] were 26 nM, 29 nM and 149 nM.
Turning to `CCOc1cc(C2CCN(CC)CC2)c(C)cc1Nc1ncc(Cl)c(Nc2cn(C)nc2S(=O)(=O)C(C)C)n1` [Final product 116], in the assay on NCI-H2228 cell line, half-maximal inhibition (IC50) required 34 nM.
Regarding `Cc1cc(Nc2ncc(Cl)c(Nc3cn(C)nc3S(=O)(=O)C(C)C)n2)c(OC2CC2)cc1[C@H]1CC[C@H](N(C)C(C)C)CC1` [Final product 194], the midpoint of inhibition in the assay with NCI-H2228 cell line, the IC50, lay at 78 nM.
On the same count and under the same terms, the value for `Cc1cc(Nc2ncc(Cl)c(Nc3cn(C)nc3S(=O)(=O)C(C)C)n2)c(OC2CC2)cc1C1CCN(C)CC1(C)C` (centres unmarked) [Final product 99] was 58 nM.
